± gives the standard deviation of the averaged measurements.
Compound: CN(C)C/C=C/C(=O)Nc1cc2c(Nc3ccc(F)c(Cl)c3)ncnc2cc1O[C@H]1CCOC1 [AFATINIB]
Assay: surviving fraction relative to DMSO-only wells; higher = less growth inhibition
Settings: exposure time: 5 days
Summary of the method: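 Inhibitors at 0.5, 1, 5, 10, 50, 100, 500 and 1000 nM were applied continuously for five days to tumour cell lines seeded in log phase at 250–500 cells per well in 384-well plates 24 hours earlier. Viability was measured by CellTiter-Glo luminescence and expressed as surviving fraction relative to the median of DMSO-only wells. Luminescence was taken after 10 minutes at room temperature.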

Test System | surviving fraction (0.5 nM) | surviving fraction (1 nM) | surviving fraction (5 nM) | surviving fraction (10 nM) | surviving fraction (50 nM) | surviving fraction (100 nM) | surviving fraction (500 nM) | surviving fraction (1000 nM)
SNU475 LIVER | 1.01 ± 0.03 | 0.985 ± 0.029 | 0.953 ± 0.062 | 0.937 ± 0.028 | 0.922 ± 0.024 | 0.893 ± 0.054 | 0.717 ± 0.012 | 0.432 ± 0.027
22RV1 PROSTATE | 1.03 ± 0.098 | 1.05 ± 0.063 | 1.01 ± 0.037 | 0.977 ± 0.087 | 0.984 ± 0.052 | 0.916 ± 0.028 | 0.737 ± 0.057 | 0.515 ± 0.065
OSHN BONE | 1.08 ± 0.03 | 1.07 ± 0.031 | 1.09 ± 0.042 | 1.07 ± 0.032 | 1.11 ± 0.032 | 1.11 ± 0.033 | 1.1 ± 0.031 | 1.06 ± 0.019
MDAMB231 BREAST | 1.05 ± 0.026 | 1.05 ± 0.028 | 1.06 ± 0.037 | 1.05 ± 0.027 | 1.04 ± 0.03 | 0.995 ± 0.025 | 0.668 ± 0.013 | 0.335 ± 0.021
ASKA SYNOVIAL | 1.13 ± 0.029 | 1.09 ± 0.035 | 1.15 ± 0.083 | 1.1 ± 0.11 | 1.15 ± 0.029 | 1.14 ± 0.028 | 0.78 ± 0.023 | 0.404 ± 0.023
SG43 HEADNECK | 1.03 ± 0.33 | 0.966 ± 0.27 | 0.362 ± 0.022 | 0.414 ± 0.18 | 0.301 ± 0.11 | 0.181 ± 0.044 | 0.182 ± 0.046 | 0.0613 ± 0.035
SAOS2 BONE | 1.15 ± 0.11 | 1.21 ± 0.067 | 1.15 ± 0.018 | 1.104 ± 0.0087 | 1.1 ± 0.013 | 1.06 ± 0.089 | 0.603 ± 0.0052 | 0.186 ± 0.034
SJSA1 BONE | 1.05 ± 0.014 | 0.9563 ± 0.0055 | 1.11 ± 0.017 | 1.04 ± 0.05 | 1.15 ± 0.063 | 1.07 ± 0.023 | 0.995 ± 0.041 | 0.613 ± 0.033
CASKI CERVIX | 0.715 ± 0.055 | 0.522 ± 0.028 | 0.409 ± 0.041 | 0.274 ± 0.015 | 0.259 ± 0.0076 | 0.223 ± 0.006 | 0.049 ± 0.007 | 0.02 ± 0.0017
T47D BREAST | 1.06 ± 0.033 | 1.04 ± 0.06 | 1.01 ± 0.031 | 0.98 ± 0.023 | 1.04 ± 0.013 | 1.08 ± 0.022 | 1.07 ± 0.054 | 0.939 ± 0.037
CME SYNOVIAL | 1.34 ± 0.1 | 1.37 ± 0.18 | 1.33 ± 0.13 | 1.28 ± 0.17 | 1.44 ± 0.19 | 1.32 ± 0.12 | 1.26 ± 0.062 | 0.733 ± 0.066
HMT3552 BREAST | 0.823 | 0.878 | 0.885 | 0.727 | 0.904 | 0.881 | 0.593 | 0.278
HCC1954 BREAST | 0.969 ± 0.079 | 0.886 ± 0.021 | 0.763 ± 0.028 | 0.56 ± 0.0078 | 0.471 ± 0.094 | 0.479 ± 0.025 | 0.266 ± 0.038 | 0.145 ± 0.011
CADOES1 SOFT TISSUE | 0.833 ± 0.033 | 0.909 ± 0.063 | 0.914 ± 0.0056 | 0.98 ± 0.011 | 0.837 ± 0.018 | 0.997 ± 0.024 | 0.931 ± 0.11 | 0.724 ± 0.051
HCC70 BREAST | 1.02 ± 0.064 | 0.981 ± 0.067 | 1 ± 0.015 | 0.965 ± 0.092 | 0.967 ± 0.022 | 1.02 ± 0.093 | 0.962 ± 0.016 | 0.827 ± 0.1
SIHA CERVIX | 1.05 ± 0.025 | 1.06 ± 0.069 | 1.02 ± 0.022 | 1.01 ± 0.064 | 1.03 ± 0.011 | 1.07 ± 0.085 | 0.845 ± 0.019 | 0.684 ± 0.052
HCC78 LUNG | 0.943 ± 0.12 | 0.936 ± 0.17 | 0.867 ± 0.21 | 0.787 ± 0.19 | 0.64 ± 0.16 | 0.682 ± 0.13 | 0.383 ± 0.13 | 0.235 ± 0.027
NOS1 BONE | 0.993 ± 0.2 | 0.997 ± 0.014 | 1.05 ± 0.066 | 0.947 ± 0.04 | 1.13 ± 0.11 | 0.983 ± 0.1 | 0.238 ± 0.019 | 0.096 ± 0.0027
OS25HAL BONE | 0.966 ± 0.014 | 1.01 ± 0.018 | 1 ± 0.029 | 1 ± 0.044 | 1.03 ± 0.039 | 1.08 ± 0.013 | 1.02 ± 0.03 | 0.855 ± 0.085

Test System | surviving fraction (0.5 nM) | surviving fraction (1 nM) | surviving fraction (5 nM) | surviving fraction (10 nM) | surviving fraction (50 nM) | surviving fraction (100 nM) | surviving fraction (500 nM) | surviving fraction (1000 nM)
NY BONE | 0.991 ± 0.051 | 0.983 ± 0.013 | 1.02 ± 0.062 | 1.038 ± 0.008 | 1.03 ± 0.053 | 0.996 ± 0.017 | 0.683 ± 0.029 | 0.392 ± 0.017
SUM44 BREAST | 1.04 ± 0.053 | 1 ± 0.054 | 1.01 ± 0.023 | 0.995 ± 0.077 | 1.07 ± 0.027 | 1.03 ± 0.022 | 0.859 ± 0.034 | 0.448 ± 0.047
HS578T BREAST | 1.01 ± 0.096 | 0.937 ± 0.017 | 1.08 ± 0.13 | 1.12 ± 0.039 | 1.17 ± 0.13 | 1.02 ± 0.052 | 0.662 ± 0.054 | 0.243 ± 0.048
HU09 BONE | 1.08 ± 0.085 | 1.02 ± 0.1 | 1.16 ± 0.074 | 1.14 ± 0.087 | 1.12 ± 0.067 | 1.06 ± 0.15 | 0.6 ± 0.049 | 0.231 ± 0.012
SCC36 HEADNECK | 0.926 ± 0.088 | 0.719 ± 0.061 | 0.523 ± 0.037 | 0.457 ± 0.031 | 0.418 ± 0.027 | 0.376 ± 0.029 | 0.264 ± 0.0053 | 0.149 ± 0.017
ZR751 BREAST | 1.14 ± 0.15 | 0.982 ± 0.17 | 0.979 ± 0.058 | 0.926 ± 0.13 | 0.746 ± 0.097 | 0.87 ± 0.1 | 0.671 ± 0.083 | 0.536 ± 0.068
HS57T BREAST | 1.05 ± 0.053 | 1.03 ± 0.056 | 1.13 ± 0.023 | 1.04 ± 0.051 | 1.11 ± 0.077 | 1.09 ± 0.076 | 0.787 ± 0.024 | 0.423 ± 0.057
MG63 BONE | 1.02 ± 0.046 | 1.03 ± 0.023 | 1.08 ± 0.022 | 1.058 ± 0.0069 | 1.05 ± 0.059 | 1.08 ± 0.017 | 0.951 ± 0.04 | 0.831 ± 0.038
VP229 BREAST | 1.1 ± 0.11 | 1.03 ± 0.13 | 0.645 ± 0.079 | 0.586 ± 0.076 | 0.324 ± 0.011 | 0.273 ± 0.04 | 0.272 ± 0.021 | 0.165 ± 0.025
SG27 HEADNECK | 1 ± 0.09 | 0.981 ± 0.035 | 1.04 ± 0.041 | 1 ± 0.14 | 0.883 ± 0.012 | 0.966 ± 0.13 | 0.865 ± 0.093 | 0.831 ± 0.068
SCC003 HEADNECK | 1.11 ± 0.093 | 1.04 ± 0.045 | 0.941 ± 0.1 | 0.901 ± 0.095 | 0.636 ± 0.056 | 0.557 ± 0.0066 | 0.518 ± 0.068 | 0.425 ± 0.058
SYO1 SYNOVIAL | 0.996 ± 0.057 | 1.03 ± 0.027 | 0.948 ± 0.059 | 0.995 ± 0.026 | 0.95 ± 0.017 | 0.952 ± 0.042 | 0.606 ± 0.035 | 0.324 ± 0.02
SUM159 BREAST | 1.07 ± 0.02 | 1.03 ± 0.061 | 1.07 ± 0.023 | 0.942 ± 0.13 | 0.943 ± 0.15 | 0.886 ± 0.27 | 0.896 ± 0.23 | 0.867 ± 0.27
HCC1806 BREAST | 1.1 ± 0.084 | 1 ± 0.038 | 0.893 ± 0.071 | 0.726 ± 0.075 | 0.57 ± 0.045 | 0.586 ± 0.028 | 0.401 ± 0.036 | 0.343 ± 0.03
MDAMB468 BREAST | 1.07 ± 0.026 | 1.04 ± 0.021 | 0.861 ± 0.078 | 0.767 ± 0.14 | 0.61 ± 0.017 | 0.617 ± 0.025 | 0.297 ± 0.012 | 0.0913 ± 0.0067
VCAP PROSTATE | 1.07 ± 0.14 | 1 ± 0.16 | 1.06 ± 0.093 | 1.06 ± 0.051 | 1.06 ± 0.064 | 1.03 ± 0.14 | 0.723 ± 0.14 | 0.405 ± 0.043
HELA CERVIX | 1.08 ± 0.041 | 1.09 ± 0.049 | 1.06 ± 0.082 | 1.02 ± 0.022 | 1.19 ± 0.028 | 1.2 ± 0.018 | 1.22 ± 0.075 | 1.1 ± 0.045
A549 LUNG | 1.02 ± 0.068 | 1.02 ± 0.053 | 0.987 ± 0.05 | 0.965 ± 0.056 | 1.03 ± 0.025 | 1.03 ± 0.019 | 1.04 ± 0.05 | 1.03 ± 0.034
SG32 HEADNECK | 1.13 ± 0.14 | 1.09 ± 0.082 | 1.13 ± 0.2 | 1.01 ± 0.078 | 0.895 ± 0.11 | 0.864 ± 0.07 | 0.637 ± 0.081 | 0.348 ± 0.09

Reference: the supplement of paper PMC6045584
